Literature values in US8063249B1, “Substituted triphenyl butenes” (Olema Pharmaceuticals, Inc., priority 2008, dated 2011).
Where two headings read alike, the source gives them in different places.

What was measured:
ER = conditions: for binding constants for the ER compared with estradiol: relative to estradiol, from Jordan, Steroids 2007; for binding to the ER: statement in words, from the literature
UGT 1A8 = target: T1, UGT 1A8 (Homo sapiens, UniProt Q9HAW9)
T1 sequence (Q9HAW9 26-530): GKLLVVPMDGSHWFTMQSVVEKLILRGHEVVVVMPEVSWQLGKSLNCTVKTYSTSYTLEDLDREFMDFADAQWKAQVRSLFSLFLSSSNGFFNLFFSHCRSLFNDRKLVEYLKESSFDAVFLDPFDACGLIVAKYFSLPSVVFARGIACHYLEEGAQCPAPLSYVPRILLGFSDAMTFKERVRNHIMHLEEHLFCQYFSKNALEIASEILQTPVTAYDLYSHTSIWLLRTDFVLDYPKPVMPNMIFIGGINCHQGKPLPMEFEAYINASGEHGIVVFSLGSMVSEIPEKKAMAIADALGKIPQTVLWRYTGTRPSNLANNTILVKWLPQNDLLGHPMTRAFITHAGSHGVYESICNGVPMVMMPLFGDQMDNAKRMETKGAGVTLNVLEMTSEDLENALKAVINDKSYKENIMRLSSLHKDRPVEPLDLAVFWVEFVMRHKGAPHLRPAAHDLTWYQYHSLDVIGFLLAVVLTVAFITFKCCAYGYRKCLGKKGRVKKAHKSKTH

UGT 1A10 = target: T2, UGT 1A10 (Homo sapiens, UniProt Q9HAW8)
T2 sequence (Q9HAW8 26-530): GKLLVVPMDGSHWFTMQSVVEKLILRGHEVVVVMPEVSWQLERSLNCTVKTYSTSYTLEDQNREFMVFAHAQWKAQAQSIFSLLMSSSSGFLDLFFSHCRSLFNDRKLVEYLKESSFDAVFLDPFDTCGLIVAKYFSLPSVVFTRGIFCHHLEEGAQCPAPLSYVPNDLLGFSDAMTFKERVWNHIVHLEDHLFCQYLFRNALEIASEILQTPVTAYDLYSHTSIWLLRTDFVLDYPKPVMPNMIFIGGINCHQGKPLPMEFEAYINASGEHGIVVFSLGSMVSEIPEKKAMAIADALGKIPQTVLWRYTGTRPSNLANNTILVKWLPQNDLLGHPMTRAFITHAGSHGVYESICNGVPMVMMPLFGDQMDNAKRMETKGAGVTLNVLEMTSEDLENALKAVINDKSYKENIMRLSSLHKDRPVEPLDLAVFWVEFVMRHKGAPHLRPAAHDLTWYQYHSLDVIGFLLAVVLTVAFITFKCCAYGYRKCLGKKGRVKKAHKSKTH

[1] = hydroxy group, from Sun et al. 2007

binding constants for the ER compared with estradiol (ER)	binding to the ER (ER)	substrate for O-glucuronidation by UGT 1A8 (UGT 1A8; [1])	substrate for O-glucuronidation by UGT 1A10 (UGT 1A10; [1])	substrate for O-glucuronidation by UGT 1A8 (UGT 1A8)	substrate for O-glucuronidation by UGT 1A10 (UGT 1A10)	Compound
roughly equal to that of estradiol	bind with high affinity	substrates for O-glucuronidation	substrates for O-glucuronidation			CC/C(=C(\c1ccc(O)cc1)c1ccc(OCCNC)cc1)c1ccccc1 [endoxifen, 4-hydroxy N-desmethyl tamoxifen]
	can no longer bind					CCC(=C(c1ccc(OCCNC)cc1)c1ccc(OC2OC(C(=O)O)C(O)C(O)C2O)cc1)c1ccccc1 (stereo not shown) [glucuronated endoxifen]
roughly equal to that of estradiol	bind with high affinity			substrates for O-glucuronidation	substrates for O-glucuronidation	4-hydroxy tamoxifen
	binds very poorly					CC/C(=C(\c1ccccc1)c1ccc(OCCN(C)C)cc1)c1ccccc1 [Tamoxifen, tamoxifen]
